This is an account of results in patent US20050059645A1, “Methods for the treatment of male and female sexual dysfunction” (priority 2003, published 2005).

The conditions of series [1]: cited from earlier work.
The test system of series [2] is ovariectomized female rats. The experiment in a line: Lordosis behavior test (lordosis quotient) in ovariectomized female rats. The format is in vivo, rat. Here is the method: Thus, lordosis was selected as an indicator of restoration of female sexual function in ovariectomized female rats and an appropriate indicator for alleviating symptoms of female sexual dysfunction.
Adult female Sprague Dawley rats (220-250 g) from Charles River Hungary Ltd., Godollo, Hungary, were used. Animals were kept in community cages (4 animals/cage) in a climate-controlled room (23±2° C., 50-60% humidity), with a 14 hour light, 10 hour dark cycle of artificial lighting, using reversed light/dark cycle. Food and water were available ad libitum.
After a minimum five-day acclimatization period, animals were ovariectomized under ether anesthesia, then were left to recover for 3 weeks before testing (reconvalescence). All animals were treated in accordance with the guidelines of the European Communities Council Directive (86/609/EEC) and studies were permitted by the Institutional Animal Care Commission.
Estradiol benzoate and progesterone were obtained from Sigma Chemical Co. Inc., Budapest, Hungary. […] E2-CDS as a 3% complex with HPβCD (E2-CDS-CD) was dissolved in distilled water and diluted with 27% HPβCD solution. E2-CDS-CD was synthesized by Alchem Laboratories Corporation, Alachua, Fla., US.
(§1) After recovery from surgery, ovariectomized female rats were divided into four groups and treated once a day for five days intravenously, via a bolus injection through the tail vein, as follows: (1) control, 27% HPβCD solution; (2) 0.003 mg/kg E2-CDS dissolved in 27% HPβCD solution; (3) 0.01 mg/kg E2-CDS dissolved in 27% HPβCD solution; and (4) 0.03 mg/kg E2-CDS dissolved in 27% HPβCD solution. A minimal number of ovariectomized (8 to 12) females were used per group. Intravenous treatments either with E2-CDS or HPβCD (controls) were carried out daily for 5 days beginning 2 days prior to the first day of behavior observations, in a volume of 0.05 ml/100 g body weight.
The behavior test was conducted in a plexiglass observation cage during the dark cycle. During behavioral observations, only a dim red light was on.
An experienced and active male rat was placed in the arena 5 minutes prior to the female. […] The lordosis quotient (LQ) expresses the estrogen effect on sexual receptivity and was calculated as follows: LQ=100×number of lordoses/10 mounts The observation of the sexual behavior of each female was carried out, in the case of E2-CDS, every day for 22 days; in the case of EB, investigations were carried out every day for 10 days. […] Citrated blood samples were taken by retro-orbital sinus puncture under light ether anesthesia. The samples were stored at 4° C. for one hour, then centrifuged at 1000 g for 10 minutes. Plasma was separated and stored at −80° C. until assayed. Plasma LH concentrations from individual samples were measured by double antibody radioimmunoassay kits obtained from Amersham Pharmacia Biotech, Rome, Italy. […] The limit of detection was 15 pg/ml.
Behavioral changes were analyzed using the Mann-Whitney U test (Siegel, Nonparametric Statistics for the Behavioral Sciences, New York; McGraw-Hill Book Company, Inc., 1956). The Fisher exact test was used for percentage comparisons (Zar, Biostatistical Analysis, Prentice Hall, Inc., Englewood Cliffs, N.J., 1974). Serum LH data were analyzed for each time and treatment group by analysis of variance (ANOVA) followed by Bonferroni posthoc test.

For another series, the system named is LH. The experiment in a line: Plasma LH by radioimmunoassay in ovariectomized female rats. The format is in vivo, rat. Particulars: 0.003, 0.01 and 0.03 mg/kg i.v. daily for 5 days. Here is the method: as §1
An experienced and active male rat was placed in the arena 5 minutes prior to the female. […] The lordosis quotient (LQ) expresses the estrogen effect on sexual receptivity and was calculated as follows: LQ=100×number of lordoses/10 mounts The observation of the sexual behavior of each female was carried out, in the case of E2-CDS, every day for 22 days; in the case of EB, investigations were carried out every day for 10 days. […] Citrated blood samples were taken by retro-orbital sinus puncture under light ether anesthesia. […] Plasma LH concentrations from individual samples were measured by double antibody radioimmunoassay kits obtained from Amersham Pharmacia Biotech, Rome, Italy. […]

Another series has as its system castrated male rats. As to conditions: cited from earlier work.
For series [3] the following is noted: estradiol itself, postmenopausal volunteer; cited from earlier work.
Where [4] appears, read: 0.01 mg/kg i.v. once a day for 5 days.
Where [5] appears, read: 0.03 mg/kg i.v. once a day for 5 days.

Where two headings read alike, the source gives them in different places.

As to `C[C@]12CC[C@H]3[C@@H](CCC4=CC(=O)CC[C@@]43C)[C@@H]1CC[C@@H]2O` [testosterone], the “estradiol formed (of recovered steroids)” value in series [1] (amygdala (Michael 1986)) was 64%; in series [1] (hypothalamus (Michael 1986)) it was 61%; in series [1] (preoptic area (Michael 1986)) it was 43%. Moreover, the “radioactivity reported to be estradiol” value in series [1] (hypothalamus, preoptic area and amygdala (Bonsall 1983)) was ≥ 50%.
In the case of `C[C@]12CC[C@@H]3c4ccc(OC(=O)c5ccccc5)cc4CC[C@H]3[C@@H]1CC[C@@H]2O` [estradiol benzoate], in series [2] (0.003 mg/kg i.v. once a day for 5 days), the “lordosis quotient, effect” value is reported as “slightly enhanced the lordosis quotient, but these effects were not statistically significant”. In addition, in series [2] (setting [4]), the “LQ increase compared to E2-CDS” value was “about 3 times less”; the “lordosis quotient LQ, effect” value is given as “slightly increased the LQ from day 3 to day 10”; the “statistical significance of LQ increase” value is “not statistically significant”. In series [2] (setting [5]), the “LQ value relative to E2-CDS” value is “about three times lower”; the “duration of LQ enhancement” value is given as “from day 3 to day 8”; the “lordosis quotient LQ, effect” value is “significantly enhanced”. Also, the “plasma LH levels, effect” value in the series with LH is given as “none of the tested dosages of estradiol benzoate gave statistically significant LH suppression”. Also, the masculine sexual behavior result in the series on castrated male rats (10 μg/day systemically for 9 to 11 days (Pfaff 1970)) was “increased mounting, intromissions and ano-genital sniffing and reduced mounting latency”. Moreover, the ejaculations entry with castrated male rats (100 μg/day for 24 to 28 days (Sodersten 1973)) was “less affected by estradiol benzoate then by testosterone propionate”. Moreover, in the series on castrated male rats (100 μg/day for 24 to 28 days, rats castrated 6 weeks previously (Sodersten 1973)), the mounts and intromissions result is on record as “equivalent to those observed following similar treatment with testosterone propionate”.
Regarding `C[C@]12CC[C@@H]3c4ccc(O)cc4CC[C@H]3[C@@H]1CC[C@@H]2O` [estradiol], the “initial serum estradiol level” value in series [3] is reported as “too high to calculate with the standard curve”.
